Like-named read-outs stand apart in the source and are kept apart here.
Target: T1, F508delCFTR (Homo sapiens, UniProt P13569, DEL508-508)
T1 construct: expressed in transfected cells; host or cells: CFBE41o- human lung-derived epithelial cells (CFBE4lo-F508delCFTR-HRP), doxycycline-inducible
Experiment: Cell Surface Expression-Horse Radish Peroxidase (CSE-HRP) Assay;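 as to Maximum % activity (with co-corrector): co-corrector and positive control are both the same reference corrector at 2 µM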;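 as to Maximum % activity (without co-corrector): percent of the 2 µM on-plate positive control corrector response above DMSO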
Type: cell-based
Settings: for Emax: read-out: Maximum % activity (without co-corrector)

[1] = test compound without co-corrector, maximum at any tested concentration, normalized to on-plate positive control
[2] = test compound without co-corrector, read-out: EC50 (without co-corrector)
[3] = with co-corrector (2 μM of 3-[(2R,4R)-4-({[1-(2,2-difluoro-1,3-benzodioxol-5-yl)cyclopropyl]carbonyl}amino)-7-methoxy-3,4-dihydro-2H-chromen-2-yl]benzoic acid), read-out: EC50 (with co-corrector)
[4] = with co-corrector (2 μM), maximum at any tested concentration, normalized to on-plate positive control
[5] = without co-corrector, maximum at any tested concentration, normalized to on-plate positive control
[6] = CSE-HRP, test compound without co-corrector, read-out: EC50 (without co-corrector)
[7] = CSE-HRP, with co-corrector (2 μM of 3-[(2R,4R)-4-({[1-(2,2-difluoro-1,3-benzodioxol-5-yl)cyclopropyl]carbonyl}amino)-7-methoxy-3,4-dihydro-2H-chromen-2-yl]benzoic acid), read-out: EC50 (with co-corrector)
[8] = CSE-HRP, with co-corrector (2 μM), maximum at any tested concentration, normalized to on-plate positive control
[9] = CSE-HRP, without co-corrector, maximum at any tested concentration, normalized to on-plate positive control
[10] = with co-corrector (2 μM of 3-[(2R,4R)-4-({[1-(2,2-difluoro-1,3-benzodioxol-5-yl)cyclopropyl]carbonyl}amino)-7-methoxy-3,4-dihydro-2H-chromen-2-yl]benzoic acid), maximum at any tested concentration, normalized to on-plate positive control

T1 sequence (P13569 with tags, fused parts or gaps DEL508-508): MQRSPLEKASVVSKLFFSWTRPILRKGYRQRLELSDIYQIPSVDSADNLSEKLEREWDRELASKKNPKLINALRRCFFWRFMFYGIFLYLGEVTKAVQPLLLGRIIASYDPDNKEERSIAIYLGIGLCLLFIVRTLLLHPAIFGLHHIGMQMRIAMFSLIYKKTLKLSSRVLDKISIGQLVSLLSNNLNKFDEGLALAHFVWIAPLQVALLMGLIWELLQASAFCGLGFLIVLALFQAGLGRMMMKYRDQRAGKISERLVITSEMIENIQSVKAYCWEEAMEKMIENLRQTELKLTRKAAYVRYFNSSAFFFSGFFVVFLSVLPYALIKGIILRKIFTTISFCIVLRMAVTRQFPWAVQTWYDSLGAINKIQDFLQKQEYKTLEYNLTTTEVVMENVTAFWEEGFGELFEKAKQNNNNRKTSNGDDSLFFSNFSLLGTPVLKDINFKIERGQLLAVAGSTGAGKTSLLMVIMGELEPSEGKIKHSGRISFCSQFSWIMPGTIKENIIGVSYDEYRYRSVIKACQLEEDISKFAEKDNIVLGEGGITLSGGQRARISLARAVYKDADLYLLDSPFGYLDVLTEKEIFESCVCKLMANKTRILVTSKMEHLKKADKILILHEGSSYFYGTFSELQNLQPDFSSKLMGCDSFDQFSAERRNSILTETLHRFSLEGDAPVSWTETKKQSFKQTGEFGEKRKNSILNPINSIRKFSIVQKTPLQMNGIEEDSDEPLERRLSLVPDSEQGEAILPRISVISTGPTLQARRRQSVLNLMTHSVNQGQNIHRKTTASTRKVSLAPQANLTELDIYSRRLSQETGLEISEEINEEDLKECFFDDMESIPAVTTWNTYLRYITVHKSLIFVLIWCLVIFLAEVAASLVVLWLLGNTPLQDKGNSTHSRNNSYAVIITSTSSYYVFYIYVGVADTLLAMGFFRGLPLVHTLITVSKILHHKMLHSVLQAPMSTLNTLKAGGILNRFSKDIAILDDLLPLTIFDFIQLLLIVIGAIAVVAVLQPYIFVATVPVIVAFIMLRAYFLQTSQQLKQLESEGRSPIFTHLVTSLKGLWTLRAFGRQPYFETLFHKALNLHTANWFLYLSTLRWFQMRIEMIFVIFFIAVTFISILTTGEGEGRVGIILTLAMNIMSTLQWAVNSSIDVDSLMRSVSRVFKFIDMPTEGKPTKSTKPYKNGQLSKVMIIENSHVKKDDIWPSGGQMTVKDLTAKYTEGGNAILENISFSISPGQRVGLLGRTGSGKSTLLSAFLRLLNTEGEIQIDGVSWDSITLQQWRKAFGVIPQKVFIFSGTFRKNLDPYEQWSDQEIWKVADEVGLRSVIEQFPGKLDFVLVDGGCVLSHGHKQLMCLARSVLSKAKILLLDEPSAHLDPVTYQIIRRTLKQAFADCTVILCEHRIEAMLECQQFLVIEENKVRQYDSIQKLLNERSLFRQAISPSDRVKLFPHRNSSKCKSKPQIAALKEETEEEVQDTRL

Emax [1] [%] | EC50 [2] [nM] | EC50 [3] [nM] | Maximum % activity (with co-corrector) [4] | Emax [5] [%] | EC50 [6] [nM] | EC50 [7] [nM] | Maximum % activity (with co-corrector) [8] | Emax [9] [%] | Maximum % activity (with co-corrector) [10] | Maximum % activity (without co-corrector) [9] | Structure (SMILES)
< 100 | > 10000 | 1000 to 10000 | ++ (≥150 and <350) |  |  |  |  |  |  |  | COc1cc(C(F)(F)F)ccc1CN[C@@H]1[C@@H](C(C)(C)C)[C@H](C(=O)O)N(C(=O)C2CCCCC2)[C@@H]1c1ccccc1OC [III-95]
 |  |  |  |  | 1000 to 10000 | 1000 to 10000 | +++ (≥350) | > 200 |  |  | COc1ccc(Cl)cc1CN[C@H]1[C@H](C(C)(C)C)[C@@H](C(=O)O)N(C(=O)[C@H](OC)c2ccccc2)[C@H]1c1ccccc1N(C)C [II-63]
 |  |  |  |  | 1000 to 10000 | 1000 to 10000 | +++ (≥350) | 100 to 200 |  |  | COc1ccc(-c2ccc(C)nc2)cc1CN[C@H]1[C@H](C(C)(C)C)[C@@H](C(=O)O)N(C(=O)C2CCCCC2)[C@H]1c1ccccc1 [II-278]
> 200 | 1000 to 10000 | 1000 to 10000 |  |  |  |  |  |  | +++ (≥350) |  | COc1ccc(-c2ccccc2)cc1CN[C@H]1[C@H](C(C)(C)C)[C@@H](C(=O)O)N(C(=O)OC(C)C)[C@H]1c1cccnc1N(C)C [II-547]
> 200 | < 1000 | < 1000 | +++ (≥350) |  |  |  |  |  |  |  | COc1ccc(C(C)(C)C)cc1CN[C@H]1[C@H](C(C)(C)C)[C@@H](C(=O)O)N(C(=O)C2CCCCC2C)[C@H]1c1ccccc1 (stereo partly drawn) [III-195]
 |  |  |  |  | 1000 to 10000 | 1000 to 10000 | +++ (≥350) | 100 to 200 |  |  | COc1ncc(C2CC2)cc1CN[C@H]1[C@H](C(C)(C)C)[C@@H](C(=O)O)N(C(=O)C2CCCCC2)[C@H]1c1ccccc1 [II-259]
 |  |  |  |  | 1000 to 10000 | 1000 to 10000 | +++ (≥350) | 100 to 200 |  |  | COc1ccc(C(C)(C)C)cc1CN[C@H]1[C@H](C(C)(C)C)[C@@H](C(=O)O)N(C(=O)C2CC(=O)N(C3CC3)C2)[C@H]1c1ccccc1 (stereo partly drawn) [II-239]
100 to 200 | 1000 to 10000 | 1000 to 10000 |  |  |  |  |  |  | +++ (≥350) |  | COc1ccc(C(F)(F)F)cc1CN[C@H]1[C@H](C(C)(C)C)[C@@H](C(=O)O)N(C(=O)C2CCCCC2)[C@H]1c1cccnc1OC [II-573]
100 to 200 | < 1000 | < 1000 |  |  |  |  |  |  | +++ (≥350) |  | COc1ncc(C(C)(C)C)cc1CN[C@H]1[C@H](C(C)(C)C)[C@@H](C(=O)O)N(C(=O)C2CCCCC2)[C@H]1c1ccccc1F [II-351]
100 to 200 | 1000 to 10000 | < 1000 | +++ (≥350) |  |  |  |  |  |  |  | COc1ncc(C2CCC2)cc1CN[C@H]1[C@H](C(C)(C)C)[C@@H](C(=O)O)N(C(=O)C2CC(C)CC(C)C2)[C@H]1c1ccccc1 (stereo partly drawn) [III-207]
 |  |  |  |  | < 1000 | < 1000 | +++ (≥350) | > 200 |  |  | COc1ccc(C(C)(C)C)cc1CN[C@H]1[C@H](C(C)(C)C)[C@@H](C(=O)O)N(C(=O)Cc2ccccc2F)[C@H]1c1ccccc1 [II-206]
> 200 | 1000 to 10000 | 1000 to 10000 |  |  |  |  |  |  | +++ (≥350) |  | COc1ccc(C23CC(C2)C3)cc1CN[C@H]1[C@H](C(C)(C)C)[C@@H](C(=O)O)N(C(=O)[C@@H]2CCC[C@@H](OC)C2)[C@H]1c1ccccc1 [II-479]
< 100 | 1000 to 10000 | 1000 to 10000 |  |  |  |  |  |  | +++ (≥350) |  | COc1ccc(C(F)(F)F)cc1CN[C@@H]1[C@@H](C(C)(C)C)[C@H](C(=O)O)N(C(=O)C2CCCCC2)[C@@H]1c1ccccn1 (racemic) [III-60]
 |  |  |  |  | 1000 to 10000 | 1000 to 10000 | +++ (≥350) | < 100 |  |  | COc1ccc(-c2cnccc2C)cc1CN[C@H]1[C@H](C(C)(C)C)[C@@H](C(=O)O)N(C(=O)C2CCCCC2)[C@H]1c1ccccc1 [II-280]
 |  |  |  |  | 1000 to 10000 | 1000 to 10000 | +++ (≥350) |  |  | + (<100) | COc1ccc(C(C)(C)C)cc1CN[C@H]1[C@H](C(C)(C)C)[C@@H](C(=O)O)N(C(=O)C(C)n2cc(Cl)c(C)n2)[C@H]1c1ccccc1 (single isomer, unassigned) [II-237]
100 to 200 | 1000 to 10000 | < 1000 | +++ (≥350) |  |  |  |  |  |  |  | COc1ncc(C(F)(F)F)cc1CN[C@@H]1[C@@H](C(C)(C)OC)[C@H](C(=O)O)N(C(=O)C2CCCCC2)[C@@H]1c1ccccc1 (racemic) [III-116]
< 100 | 1000 to 10000 | 1000 to 10000 | ++ (≥150 and <350) |  |  |  |  |  |  |  | Cc1cc(C(F)(F)F)cc(N[C@H]2[C@H](C(C)(C)C)[C@@H](C(=O)O)N(C(=O)[C@H]3CCCCO3)[C@H]2c2cccnc2N(C)C)n1 [III-216]
< 100 | 1000 to 10000 | 1000 to 10000 | ++ (≥150 and <350) |  |  |  |  |  |  |  | Cc1cc(CN[C@H]2[C@H](C(C)(C)C)[C@@H](C(=O)O)N(C(=O)C3CCCCC3)[C@H]2c2ccccc2)cc(C)c1OC(F)F [III-141]
< 100 | > 10000 | > 10000 |  |  |  |  |  |  | + (<150) |  | COc1cc(-c2ccccc2)ccc1CN[C@@H]1[C@@H](C(C)(C)C)[C@H](C(=O)O)N(C(=O)OC(C)C)[C@@H]1c1ccccc1 (racemic) [III-92]

The next lines start with the molecule.

Structure (SMILES) | Emax [1] [%] | EC50 [2] [nM] | EC50 [3] [nM] | Maximum % activity (with co-corrector) [4] | Emax [5] [%] | EC50 [6] [nM] | EC50 [7] [nM] | Maximum % activity (with co-corrector) [8] | Emax [9] [%] | Maximum % activity (with co-corrector) [10] | Maximum % activity (without co-corrector) [9]
COc1ccc(C(F)(F)F)cc1CN[C@H]1[C@H](C(C)(C)C)[C@@H](C(=O)O)N(C(=O)[C@@H](OC)c2ccccc2)[C@H]1c1ccccc1 [Example I-34] |  | 1000 to 10000 | 1000 to 10000 | +++ (≥350) | > 200 |  |  |  |  |  | 
COc1cc(C(F)(F)F)ccc1CN[C@H]1[C@H](C(C)(C)C)[C@@H](C(=O)O)N(C(=O)C2C3CCCC32)[C@H]1c1ccccc1 (stereo partly drawn) [Example 65, (2S,3S,4S,5S)-1-(bicyclo[3.1.0]hexane-6-carbonyl)-3-tert-butyl-4-({[2-methoxy-4-(trifluoromethyl)phenyl]methyl}amino)-5-phenylpyrrolidine-2-carboxylic acid] |  | 1000 to 10000 | 1000 to 10000 | +++ (≥350) | 100 to 200 |  |  |  |  |  | 
COc1ncc(C(F)(F)F)cc1CN[C@H]1[C@H](C(C)(C)C)[C@@H](C(=O)O)N(C(=O)[C@H](C)c2ccccc2)[C@H]1c1cccnc1OC [Example I-240] |  | 1000 to 10000 | 1000 to 10000 | +++ (≥350) | < 100 |  |  |  |  |  | 
COc1ccc(C(C)(C)C)cc1CN[C@H]1[C@H](C(C)(C)C)[C@@H](C(=O)O)N(C(=O)[C@@H]2C[C@H]3CC[C@@H]2O3)[C@H]1c1ccccc1C(C)C (relative stereo) [Example 74, (2S,3S,4S,5S)-3-tert-butyl-4-{[(5-tert-butyl-2-methoxyphenyl)methyl]amino}-1-[(1S*,2R*,4R*)-7-oxabicyclo[2.2.1]heptane-2-carbonyl]-5-[2-(propan-2-yl)phenyl]pyrrolidine-2-carboxylic acid] |  | 1000 to 10000 | < 1000 | +++ (≥350) | > 200 |  |  |  |  |  | 
COc1nc(C(C)(C)C)ccc1CN[C@H]1[C@H](C(C)(C)C)[C@@H](C(=O)O)N(C(=O)[C@H](C)c2ccccc2)[C@H]1c1ccccc1 [Example I-182] |  | 1000 to 10000 | 1000 to 10000 | +++ (≥350) | 100 to 200 |  |  |  |  |  | 
COc1ccc(C(F)(F)F)cc1CN[C@@H]1[C@@H](C(C)(C)C)[C@H](C(=O)O)N(C(=O)C(C)(C)OC)[C@@H]1c1ccccc1 (racemic) [Example I-41] |  | > 10000 | 1000 to 10000 | ++ (≥150 and <350) | < 100 |  |  |  |  |  | 
COc1ncc([Si](C)(C)C)cc1CN[C@H]1[C@H](C(C)(C)C)[C@@H](C(=O)O)N(C(=O)[C@@H]2CCCC(F)(F)C2)[C@H]1c1ccccc1 [Example I-189] |  | < 1000 | < 1000 |  |  |  |  |  |  |  | 
CC(C)(C)c1ccc(O)c(CN[C@H]2[C@H](C(C)(C)C)[C@@H](C(=O)O)N(C(=O)C3CCCCC3)[C@H]2c2ccccc2)c1 [Example I-80] |  | > 10000 | > 10000 | + (<150) | < 100 |  |  |  |  |  | 
COc1ncc(C(F)(F)F)cc1CN[C@H]1[C@H](C(C)(C)C)[C@@H](C(=O)O)N(C(=O)[C@H]2C[C@@H]3CC[C@H]2O3)[C@H]1c1ccccc1C(C)C (relative stereo) [Example I-270] |  |  |  |  |  | < 1000 | < 1000 | +++ (≥350) | > 200 |  | 
Cc1cc(C(F)(F)F)cc(N[C@H]2[C@H](C(C)(C)C)[C@@H](C(=O)O)N(C(=O)C3CCCCC3)[C@H]2c2ccccc2)n1 [Example 4, (2S,3S,4S,5S)-3-tert-butyl-1-(cyclohexanecarbonyl)-4-{[6-methyl-4-(trifluoromethyl)pyridin-2-yl]amino}-5-phenylpyrrolidine-2-carboxylic acid] |  | 1000 to 10000 | 1000 to 10000 | +++ (≥350) | < 100 |  |  |  |  |  | 

Source: patent US20180099931A1 (AbbVie S.à.r.l., priority 2016, published 2018)
